We go through four molecules from patent EP4700019A1, “CRYSTAL FORM OF 1,5-DIHYDRO-2,4-BENZODIAZEPINE-3-ONE DERIVATIVE CITRATE, PREPARATION METHOD, AND USE THEREOF” (priority 2023, dated 2024).

Structures can show the parent of a compound that is named as a salt. Where two headings read alike, the source gives them in different places.

Data set [1] can be described thus: Stability test (high humidity, light, high temperature, high temperature stress; HPLC). It is filed as physicochemical.
Data set [2] is described as follows: Pharmacokinetics and bioavailability test in beagle dogs (Test Example 3). It is filed as in vivo. The settings on record: for bioavailability: absolute oral bioavailability. Here is the method:
Six healthy male beagle dogs were randomly divided into three groups, with two dogs in each group. […] Blood samples were collected from the forelimb vein of the dogs before and at various time points after administration. Plasma drug concentrations at different times were measured by LC-MS/MS. Pharmacokinetic parameters and the absolute oral bioavailability were calculated using WinNonlin7.0 software.

Data set [3] is classed as physicochemical. The settings on record: Water, 25°C ± 2°C. How it is done: An appropriate amount of the test substance was accurately weighed And placed under conditions of 25°C ± 2°C. Different solvents were added in suitable quantities, and the mixture was vigorously shaken for 30 seconds every 5 minutes, and the dissolution status was observed over a period of 30 minutes. […]

The nature of data set [4]: Stability test (high humidity, light, high temperature, high temperature stress; HPLC). It is filed as physicochemical. How it is done:
These samples were stored under two different conditions: (1) relative humidity of 92.5% at 25°C, and (2) relative humidity of 75% ± 1% at room temperature; The samples were maintained under these conditions for 10 days. Sampling was performed on day 0 and day 10, followed by HPLC analysis.
HPLC analysis was performed on day 0 and day 10.
Samples were collected and subjected to HPLC analysis.
The source holds these as a separate data set.

A short description of data set [5]: Pharmacokinetics and bioavailability test in beagle dogs (Test Example 4). It is filed as in vivo. Here is the method: Experimental method: Six healthy beagle dogs were randomly divided into two groups, with two dogs (one female and one male) in the first group, and four dogs (two females and two males) in the second group. […] Blood samples were collected from the forelimb veins of beagle dogs at various time points before and after administration. Plasma was obtained by centrifugation, and drug concentrations in plasma at different time points were measured using LC-MS/MS. Pharmacokinetic parameters and the absolute oral bioavailability were calculated using WinNonlin8.0 software.

The target of data set [6] is muscarinic receptors. The settings on record: no significant affinity; cited from earlier work.
In data set [7] the target is calcium channel receptors. The settings on record: no significant affinity; cited from earlier work.
The target of data set [8] is adrenergic receptors. The settings on record: no significant affinity; cited from earlier work.
Data set [9] addresses dopamine receptors (including D2 receptors). The settings on record: no significant affinity; cited from earlier work.
In data set [10] the target is 5-HT2B receptors (Homo sapiens, UniProt P41595). The settings on record: no significant affinity; cited from earlier work.
Sequence of 5-HT2B receptors (P41595 whole entry): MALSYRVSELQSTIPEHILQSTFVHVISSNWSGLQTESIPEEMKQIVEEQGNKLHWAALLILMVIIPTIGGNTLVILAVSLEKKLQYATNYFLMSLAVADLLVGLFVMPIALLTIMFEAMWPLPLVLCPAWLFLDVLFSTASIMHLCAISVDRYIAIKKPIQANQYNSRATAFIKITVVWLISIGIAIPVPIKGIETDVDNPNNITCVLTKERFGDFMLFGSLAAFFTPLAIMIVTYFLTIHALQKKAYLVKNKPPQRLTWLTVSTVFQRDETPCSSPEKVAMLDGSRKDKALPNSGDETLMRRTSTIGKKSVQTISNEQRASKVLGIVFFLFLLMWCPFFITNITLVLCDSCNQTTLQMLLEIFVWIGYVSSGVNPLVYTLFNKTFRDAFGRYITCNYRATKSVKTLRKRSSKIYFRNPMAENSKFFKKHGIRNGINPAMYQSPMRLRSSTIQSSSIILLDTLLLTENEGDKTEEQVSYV
[11] abbreviates: High temperature of 40 °C for 10 days.
Where [12] appears, read: High temperature of 60 °C for 10 days.
Setting [13] is: High temperature of 105 °C for 1 day.
The mark [14] stands for this setting: Light exposure for 10 days (5000 lx ± 500 lx; UV 90 µW/cm^2).
The mark [15] stands for this setting: PO 5 mg/kg (calculated as free base), capsules, male beagle dogs, plasma.
Where [16] appears, read: 75% High humidity for 10 days, room temperature.
[17] abbreviates: 92.5% High humidity for 10 days, 25°C.
Where [18] appears, read: PO 10 mg/kg (calculated based on free base), capsule.
Setting [19] is: both sexes, dog, plasma, PO 10 mg/kg (calculated based on free base), capsule.
[20] abbreviates: IV 0.69 mg/kg (calculated based on free base).
Setting [21] is: dog, in vivo, IV 0.69 mg/kg (calculated based on free base).

As usually defined, the Cmax is the peak of the concentration-time curve. A word on the bioavailability: it is the share of a dose that reaches the circulation, judged against a reference dose that is usually intravenous. As for `CN1CCC(N2Cc3cc(F)ccc3CN(Cc3ccc(OC4CC4)cc3)C2=O)CC1` [Base compound, 2-(4-cyclopropyloxybenzyl)-7-fluoro-4-(1-methylpiperidin-4-yl)-1,2,4-tetrahydro-3H-benzo[e][1,3]d iazepine-3-one], the “HPLC determination results of the stability” value (“HPLC determination results” below) was found to be 95.418% in data set [1] (setting [11]); 82.682% in [1] (setting [12]); 76.929% in data set [1] (setting [13]); 95.604% in [1] (setting [14]); 97.643% in data set [4] (setting [16]); 97.703% in data set [4] (setting [17]). Further, in [4] (original sample (0 day)), the “HPLC determination results” value is 98.018%. For the same molecule, the AUC0-last in [2] (setting [15]) was 43.9 ng·h/mL. Moreover, in [2] (setting [15]), the Cmax is recorded as 10.2 ng/mL. Besides, in data set [2] (PO 5 mg/kg (calculated as free base), capsules, male beagle dogs), the bioavailability is given as 2.4%. Besides, the “Conclusion (solubility)” value in data set [3] is given as “insoluble”.

In general, AUC(0-t) refers to exposure summed from dosing to a finite time, without extrapolation to infinity. Usually AUC(0-inf) stands for the area under the concentration-time curve extrapolated to infinity. As usually defined, the Tmax is the time from dosing to the highest level. The half-life is the time in which the quantity being followed falls by half. For the molecule `CN1CCC(N2Cc3cc(F)ccc3CN(Cc3ccc(OC4CC4)cc3)C2=O)CC1.O=C(O)CC(O)(CC(=O)O)C(=O)O` [Crystalline form II, 2-(4-cyclopropyloxybenzyl)-7-fluoro-4-(1-methylpiperidin-4-yl)-1,2,4,5-tetrahydro-3H-benzo[e] [1,3]diazepine-3-one citrate], the “HPLC determination results” value in data set [1] (setting [11]) stood at 99.756%; in data set [1] (setting [12]) it was 99.723%; in data set [1] (setting [13]), 99.709%; in [1] (setting [14]), 99.762%; in data set [4] (setting [16]), 99.749%; in data set [4] (setting [17]), 99.735%. The “HPLC determination results” value in data set [4] (original sample (0 day)) is on record as 99.839%. Also, the bioavailability in data set [2] (dog, plasma, PO 5 mg/kg (calculated as free base), capsules, male beagle dogs, read-out: bioavailability) is 7.4%; in [5] (both sexes, dog, plasma, PO 10 mg/kg (calculated based on free base), capsule, absolute oral bioavailability), 94.8%. Also, the AUC(0-t) in [2] (dog, PO 5 mg/kg (calculated as free base), capsules, male beagle dogs, plasma) is 139 ng·h/mL; in data set [5] (setting [19]), 6280 ng·h/mL. Further, the Cmax in data set [2] (dog, PO 5 mg/kg (calculated as free base), capsules, male beagle dogs, plasma, read-out: Cmax) is 38.8 ng/mL; in data set [5] (setting [19]), 754 ng/mL. Moreover, the “increase of bioavailability compared with the base compound” value in data set [2] (oral solid dosage form, PO 5 mg/kg, beagle dogs) is listed as “more than 3 times”. Further, the AUC_%Extrap in [5] (setting [18]) is recorded as 2.12%. Also, the MPT0-last in [5] (setting [18]) is recorded as 6.62 h. In addition, the Rsq_adj in data set [5] (setting [18]) is recorded as 1.00. Moreover, the AUC(0-inf) in data set [5] (setting [19]) was 6400 ng·h/mL. Besides, the Tmax in [5] (setting [19]) is 2.25 h. In [5] (setting [19]), the half-life is 3.96 h. Moreover, in data set [3] (citrate), the “Conclusion (solubility)” value is recorded as “Very Slightly Soluble”.

By Ki is commonly meant the equilibrium dissociation constant of an inhibitor or competing ligand from its target. Regarding `CC(C)COc1ccc(CNC(=O)N(Cc2ccc(F)cc2)C2CCN(C)CC2)cc1` [Pimavanserin], the inhibition constant (Ki) in data set [6], in data set [7], in data set [8], in data set [9] and in data set [10] was more than 300 nM throughout.

Usually clearance stands for the volume of plasma or blood freed of the substance per unit of time. In data set [2] (dog, in vivo, IV 1 mg/kg, male beagle dogs, plasma), `CN1CCC(N2Cc3cc(F)ccc3CN(Cc3ccc(OC4CC4)cc3)C2=O)CC1` [citrate, 2-(4-cyclopropyloxybenzyl)-7-fluoro-4-(1-methylpiperidin-4-yl)-1,2,4-tetrahydro-3H-benzo[e][1 ,3]diazepine-3-one citrate] displayed an AUC(0-t) of 348 ng·h/mL. The Cmax in [2] (dog, in vivo, IV 1 mg/kg, male beagle dogs, plasma, read-out: Cmax) was found to be 138 ng/mL. Further, in data set [5] (setting [20]), the AUC_%Extrap is listed as 4.20%, the MPT0-last was 4.41 h and the Rsq_adj is 1.00. Besides, in [5] (setting [21]), the AUC(0-inf) was 466 ng·h/mL, the AUC(0-t) is 447 ng·h/mL, the Cmax is 220 ng/mL and the Tmax was 0.08 h. Besides, in data set [5] (setting [21]), the clearance is 24.7 mL/min/kg and the half-life was 2.2 h. Moreover, the Vd in data set [5] (dog, in vivo, IV 0.69 mg/kg (calculated based on free base), read-out: Vdss) is 2.5 L/kg.
